Assay results: ChEMBL document CHEMBL1201862, “PubChem BioAssay data set” (2004)
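Grown in 96-well plates, cells were treated for 48 hours with each compound at five concentrations. Insufficient inhibition: endpoint recorded as highest concentration tested. At the GI50, growth is halved.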 The source made the active and inactive calls. No stated cut-off is given here; in the data, active = GI50 up to about 1.1 µM and inactive = higher.

Tests used:
Experiment in all cases: growth of human tumour cells (NCI), 48 h
[1] = system: HOP-18
[2] = system: DLD-1
[3] = system: M19-MEL
[4] = system: LXFL 529
[5] = system: SNB-78
[6] = system: DMS-114
[7] = system: KM-20L2
[8] = system: XF498
[9] = system: RXF 631

SMILES | GI50 [1] | GI50 [2] | GI50 [3] | GI50 [4] | GI50 [5] | GI50 [6] | GI50 [7] | GI50 [8] | GI50 [9]
CNC(=O)OCc1nc(SC(C)C)n(C)c1COC(=O)NC | > 100 µM (inactive) | > 100 µM (inactive) | > 100 µM (inactive) | > 100 µM (inactive) | 65.6 µM (inactive) | > 83.6 µM (inactive) | > 100 µM (inactive) |  | 
COc1ccc(-c2cc(O)c3cc4c(cc3n2)OCO4)c(OC)c1 | 56.4 µM (inactive) | 36.8 µM (inactive) | 43 µM (inactive) | 45.7 µM (inactive) | 54.7 µM (inactive) |  |  | 30.3 µM (inactive) | 
CC1(O)CC2C(CC1SCCO)C2(C)C (configuration not stated) | > 100 µM (inactive) | > 100 µM (inactive) | > 100 µM (inactive) | > 100 µM (inactive) | > 100 µM (inactive) | > 100 µM (inactive) |  | > 100 µM (inactive) | 
N/N=C1/C(=O)N(c2ccc(Cl)cc2)C(=O)C(=O)C1c1nc2ccccc2s1 (configuration not stated) | > 100 µM (inactive) | > 100 µM (inactive) | > 100 µM (inactive) | > 100 µM (inactive) | > 100 µM (inactive) | > 100 µM (inactive) | > 100 µM (inactive) | > 95.1 µM (inactive) | 
CN/N=C(/CC(=O)c1sc(-n2nc(-c3ccccc3)cc2-c2ccccc2)nc1C)C(=O)Nc1ccc(Cl)c(Cl)c1 |  | 37.6 µM (inactive) | 42.5 µM (inactive) | 26.3 µM (inactive) | 14 µM (inactive) |  |  |  | 
IC[P+]1(c2ccccc2)CCCC1 | 58.7 µM (inactive) | 52.2 µM (inactive) | 21.3 µM (inactive) | 29.6 µM (inactive) | > 100 µM (inactive) | 9.25 µM (inactive) | 26.2 µM (inactive) | < 0.01 µM (active) | 
COC(=O)C1=C(C)N(NC(N)=O)C(C)(O)C12CCOC2=O (configuration not stated) | > 100 µM (inactive) | > 100 µM (inactive) | > 100 µM (inactive) | > 100 µM (inactive) | > 100 µM (inactive) | > 100 µM (inactive) | > 100 µM (inactive) | > 100 µM (inactive) | 
Cn1cc(C2(C)CC(C)(C)c3c2n(C)c2ccccc32)c2ccccc21 (configuration not stated) |  | > 100 µM (inactive) | > 100 µM (inactive) | > 100 µM (inactive) | > 100 µM (inactive) | 59.6 µM (inactive) | > 100 µM (inactive) | 81.1 µM (inactive) | 
COC(=O)CCc1cccnc1/C=N/O | > 100 µM (inactive) | > 100 µM (inactive) | > 100 µM (inactive) | > 100 µM (inactive) | > 100 µM (inactive) | > 100 µM (inactive) | > 100 µM (inactive) |  | > 100 µM (inactive)
COc1ccccc1NC(=O)C1=C(C)NC(C)=C(C(=O)Nc2ccccc2OC)C1c1ccccc1F | > 100 µM (inactive) | > 100 µM (inactive) |  | 57.5 µM (inactive) | 51.5 µM (inactive) | 47.8 µM (inactive) | 92.9 µM (inactive) |  | > 100 µM (inactive)
O=C(CN1CCCCC1)N1CCc2c([nH]c3ccccc23)C1c1cccnc1 (configuration not stated) | > 100 µM (inactive) | > 100 µM (inactive) | > 100 µM (inactive) | > 100 µM (inactive) | > 100 µM (inactive) | > 100 µM (inactive) | > 100 µM (inactive) | > 100 µM (inactive) | > 100 µM (inactive)
Cn1nc(-c2ccccc2)c(C(=O)/C=C/c2ccc(Cl)cc2)c(N2CCCCC2)c1=O | 2.16 µM (inactive) | 2.53 µM (inactive) | 2.25 µM (inactive) | 1.8 µM (inactive) |  | 1.92 µM (inactive) | 2.43 µM (inactive) | 1.64 µM (inactive) | 3.4 µM (inactive)
CC(=O)NC1C(OCc2ccccc2)OC(COC(=O)CCCCCCCCCCNC(=O)CCNc2ccc([N+](=O)[O-])c3[nH]c4ccc(O)cc4c(=O)c23)C(O)C1OC(C)C(=O)N[C@H](C(=O)N[C@H](CCC(=O)O)C(N)=O)C(C)C (some centres not stated) | > 100 µM (inactive) | 33.5 µM (inactive) | 79.1 µM (inactive) | 81.8 µM (inactive) | 45.7 µM (inactive) | 36.2 µM (inactive) | 25.4 µM (inactive) |  | 90.6 µM (inactive)
C=CCCCCC1CCC2CCC(CCCCC=C)N12 (configuration not stated) | 21.3 µM (inactive) |  | 20.4 µM (inactive) | 14 µM (inactive) |  | 15.7 µM (inactive) | 12.1 µM (inactive) |  | 
Cc1c(C(=O)/C=C/c2ccccc2Cl)[n+]([O-])c2ccccc2[n+]1[O-] | 15 µM (inactive) | 6.53 µM (inactive) | 14.7 µM (inactive) | 7.08 µM (inactive) | 12.4 µM (inactive) | 6.97 µM (inactive) | 16.9 µM (inactive) |  | 15.2 µM (inactive)
c1ccc(OCCSCCCCCCCCCCSCCOc2ccccc2)cc1 | > 100 µM (inactive) |  | > 100 µM (inactive) | > 100 µM (inactive) | > 100 µM (inactive) | > 100 µM (inactive) | > 100 µM (inactive) |  | > 100 µM (inactive)
O=C(Nc1ccccc1)O/N=C1/CCCC/C1=C\c1ccccc1 | 13.7 µM (inactive) | 14.6 µM (inactive) | 18.1 µM (inactive) | 8.49 µM (inactive) | 12.4 µM (inactive) | 12 µM (inactive) | 19.6 µM (inactive) |  | 18.3 µM (inactive)
CC12CCC(C)(c3cc(O)c(O)cc31)c1cc(O)c(O)cc12 |  | 17.5 µM (inactive) | 13.7 µM (inactive) | 8.47 µM (inactive) | 17.7 µM (inactive) | 14.8 µM (inactive) | 19 µM (inactive) | 17.1 µM (inactive) | 20.2 µM (inactive)
C=C1C(=O)OC2C1CC[C@H](C)C1(O)C(O)CC(=O)[C@@]21C (some centres not stated) |  | 18.7 µM (inactive) | 12.3 µM (inactive) | > 10 µM (inactive) | 26.7 µM (inactive) | 16.7 µM (inactive) |  |  | 
COc1cc2c(c(OC)c1OC)-c1ccc(SC)c(=O)cc1[C@@H](NC(=O)c1ccc(F)cc1)CC2 |  | 0.0423 µM (active) | 0.0409 µM (active) | 0.0356 µM (active) | 0.055 µM (active) |  | 0.0233 µM (active) | 0.049 µM (active) | 
